4 compounds from patent US20260132420A1, “VIRAL VECTORS FOR NUCLEAR REPROGRAMMING” (Mayor Foundation for Medical Education and Research, priority 2016, published 2026) can be followed below.

The test system of experiment [1] is BJ cells. Description: Reprogramming of BJ human fibroblasts into iPSC-like clones. The settings on record: SB431542 5 μM, PD0325901 0.2 μM, Thiazovivin 0.5 μM together, day 7 to 14. The experiment is classed as cell-based. The protocol:
Using a reprogramming protocol described elsewhere (Driscoll et al., Stem Cell Research and Therapy 6:48 (2015)), an iPSC-like clone with MV(OCT4)P-ΔH(KLF4) (GFP)H or MV(T) vector in combination with 2 LV encoding SOX2 and cMYC was obtained. The clone obtained with vector MV(T) was analyzed for pluripotency markers (FIGS. 2B and C), for its ability to spontaneously differentiate into the three germ lineages after EB formation (not shown), and its ability to differentiate into contracting cardiomyocytes through guided cardiac differentiation (FIG. 2D).
To increase transduction efficiency the spinoculation technique was established. To reduce MV-induced toxicity, the MOI of transduction was decreased. BJ cells, a neonatal foreskin human cells were purchased from the American Type Culture Collection (ATCC #CRL 2522), and were transduced with the 4F vector at a MOI of 1 instead of 6 as described elsewhere (Driscoll et al., Stem Cell Research and Therapy 6:48 (2015)). In order to induce TLR3 activation during MV reprogramming, the transduction was performed in presence of polyI:C (a TLR3 activator). Transduced cells were subjected or not to spinoculation at 1000 rpm for 1 hour at room temperature. The culture supernatants were replaced with BJ media every three days. […] The cells were monitored until reprogrammed cells form small colonies with iPSC morphology (one to two weeks after vector transduction). […] The most efficient MOI for each vector was determined.
The ability of the MV(OCT4) mir375 to reprogram BJ cells in presence of 3LV expressing SOX2, KLF4, and cMYC was analyzed, and its efficiency was compared to MV(OCT4) and 4LV. […] Using light and fluorescence microscopy, early phases of iPSC-like clone development with MV(OCT4)miR375 were observed (15 days post transduction, FIG. 6B). […] The expression of the N mRNA in the early passages of four iPSC-like clones derived from MV(OCT4)miR375 was analyzed. […] RNA was collected at each passage and RT-PCR for N and P mRNA was analyzed. […]
The ability of the 4F* to reprogram BJ cells was analyzed. […]

Experiment [2] relates to BJ cells. Description: Transduction efficiency by GFP expression (microscopy, flow cytometry). The experiment is classed as cell-based, human. The settings on record: added at transduction with MV vector, 48 hours. An excerpt:
To increase transduction efficiency the spinoculation technique was established. To reduce MV-induced toxicity, the MOI of transduction was decreased. BJ cells, a neonatal foreskin human cells were purchased from the American Type Culture Collection (ATCC #CRL 2522), and were transduced with the 4F vector at a MOI of 1 instead of 6 as described elsewhere (Driscoll et al., Stem Cell Research and Therapy 6:48 (2015)). In order to induce TLR3 activation during MV reprogramming, the transduction was performed in presence of polyI:C (a TLR3 activator). Transduced cells were subjected or not to spinoculation at 1000 rpm for 1 hour at room temperature. The culture supernatants were replaced with BJ media every three days. After 9 days, optimized serum-free/feeder-free iPSC medium was added and replaced daily. The cells were monitored until reprogrammed cells form small colonies with iPSC morphology (one to two weeks after vector transduction). Pictures were taken at different stages. iPS-like clones were picked after three to four weeks, and plated at 1 colony/well in Matrigel-coated wells for further expansion. […] The most efficient MOI for each vector was determined.
Transduction efficacy of the vectors was tested at different MOI using light microscopy and flow cytometry and testing for GFP expression. BJ cells were transduced with 4F* at a MOI of 0.5 or 0.25. […]

On to `O=C(NOC[C@H](O)CO)c1ccc(F)c(F)c1Nc1ccc(I)cc1F` [PD0325901], for which, in the experiment on BJ cells [1], the “effect of added small molecules on reprogramming efficiency of MV four factor vectors” value (“effect of added small molecules” for short) is recorded as “improved efficiency”. For the compound `NC(=O)c1ccc(-c2nc(-c3ccc4c(c3)OCO4)c(-c3ccccn3)[nH]2)cc1` [SB431542], the “effect of added small molecules” value with BJ cells [1] is listed as “improved efficiency”. In the case of `O=C(NCc1ccccc1)c1csc(Nc2ccncn2)n1` [Thiazovivin], the “effect of added small molecules” value in the experiment with BJ cells [1] is on record as “improved efficiency”. As to polyI:C, the “effect on expression of measles proteins (GFP)” value in the experiment on BJ cells [2] is recorded as “does not affect the expression of measles proteins”.
